According to ChEMBL document CHEMBL4004849, “Tetrazolylmethyl quinolines: Design, docking studies, synthesis, anticancer and antifungal analyses” (2017):
Values after ≈ are worked out from the molar mass of the structure shown.

Key:
Format in all cases: functional
NCI-H226 = assay: Growth inhibition of human NCI-H226 cells at 10^-5 M incubated for 48 hrs by sulforhodamine B assay relative to control; conditions: NCI-H226, 48 h, read-out: GI
RXF 393 = assay: Growth inhibition of human RXF393 cells at 10^-5 M incubated for 48 hrs by sulforhodamine B assay relative to control; conditions: RXF 393, 48 h, read-out: GI
UACC-62 = assay: Growth inhibition of human UACC62 cells at 10^-5 M incubated for 48 hrs by sulforhodamine B assay relative to control; conditions: UACC-62, 48 h, read-out: GI
SF-268 = assay: Growth inhibition of human SF268 cells at 10^-5 M incubated for 48 hrs by sulforhodamine B assay relative to control; conditions: SF-268, 48 h, read-out: GI
Hs-578T = assay: Growth inhibition of human Hs 578T cells at 10^-5 M incubated for 48 hrs by sulforhodamine B assay relative to control; conditions: read-out: GI
Candida albicans = assay: Antifungal activity against Candida albicans after 24 hrs by serial dilution method
SW-620 = assay: Growth inhibition of human SW620 cells at 10^-5 M incubated for 48 hrs by sulforhodamine B assay relative to control; conditions: SW-620, 48 h, read-out: GI
M14 = assay: Growth inhibition of human M14 cells at 10^-5 M incubated for 48 hrs by sulforhodamine B assay relative to control; conditions: M14, 48 h, read-out: GI
MDA-MB-231 = assay: Growth inhibition of human MDA-MB-231/ATCC cells at 10^-5 M incubated for 48 hrs by sulforhodamine B assay relative to control; conditions: MDA-MB-231, 48 h, read-out: GI
TK-10 = assay: Growth inhibition of human TK10 cells at 10^-5 M incubated for 48 hrs by sulforhodamine B assay relative to control; conditions: TK-10, 48 h, read-out: GI
LOX IMVI = assay: Growth inhibition of human LOXIMVI cells at 10^-5 M incubated for 48 hrs by sulforhodamine B assay relative to control; conditions: read-out: GI
BT-549 = assay: Growth inhibition of human BT549 cells at 10^-5 M incubated for 48 hrs by sulforhodamine B assay relative to control; conditions: BT-549, 48 h, read-out: GI
A549 = assay: Growth inhibition of human A549/ATCC cells at 10^-5 M incubated for 48 hrs by sulforhodamine B assay relative to control; conditions: A549, 48 h, read-out: GI
UO-31 = assay: Growth inhibition of human UO31 cells at 10^-5 M incubated for 48 hrs by sulforhodamine B assay relative to control; conditions: UO-31, 48 h, read-out: GI
786-0 = assay: Growth inhibition of human 786-0 cells at 10^-5 M incubated for 48 hrs by sulforhodamine B assay relative to control; conditions: 786-0, 48 h, read-out: GI
OVCAR-8 = assay: Growth inhibition of human OVCAR8 cells at 10^-5 M incubated for 48 hrs by sulforhodamine B assay relative to control; conditions: OVCAR-8, 48 h, read-out: GI
Aspergillus fumigatus [1] = assay: Antifungal activity against Aspergillus fumigatus at 100 ug/ml by disc diffusion method; conditions: read-out: IZ
EKVX = assay: Growth inhibition of human EKVX cells at 10^-5 M incubated for 48 hrs by sulforhodamine B assay relative to control; conditions: read-out: GI
OVCAR-5 = assay: Growth inhibition of human OVCAR5 cells at 10^-5 M incubated for 48 hrs by sulforhodamine B assay relative to control; conditions: OVCAR-5, 48 h, read-out: GI
T47D = assay: Growth inhibition of human T47D cells at 10^-5 M incubated for 48 hrs by sulforhodamine B assay relative to control; conditions: read-out: GI
SN12C = assay: Growth inhibition of human SN12C cells at 10^-5 M incubated for 48 hrs by sulforhodamine B assay relative to control; conditions: read-out: GI
HCC 2998 = assay: Growth inhibition of human HCC2998 cells at 10^-5 M incubated for 48 hrs by sulforhodamine B assay relative to control; conditions: HCC 2998, 48 h, read-out: GI
SK-MEL-5 = assay: Growth inhibition of human SK-MEL-5 cells at 10^-5 M incubated for 48 hrs by sulforhodamine B assay relative to control; conditions: SK-MEL-5, 48 h, read-out: GI
Aspergillus fumigatus [2] = assay: Antifungal activity against Aspergillus fumigatus after 24 hrs by serial dilution method
SK-MEL-28 = assay: Growth inhibition of human SK-MEL-28 cells at 10^-5 M incubated for 48 hrs by sulforhodamine B assay relative to control; conditions: SK-MEL-28, 48 h, read-out: GI
SK-OV-3 = assay: Growth inhibition of human SKOV3 cells at 10^-5 M incubated for 48 hrs by sulforhodamine B assay relative to control; conditions: SK-OV-3, 48 h, read-out: GI
SNB-19 = assay: Growth inhibition of human SNB19 cells at 10^-5 M incubated for 48 hrs by sulforhodamine B assay relative to control; conditions: SNB-19, 48 h, read-out: GI
MCF7 = assay: Growth inhibition of human MCF7 cells at 10^-5 M incubated for 48 hrs by sulforhodamine B assay relative to control; conditions: MCF7, 48 h, read-out: GI
SF-539 = assay: Growth inhibition of human SF539 cells at 10^-5 M incubated for 48 hrs by sulforhodamine B assay relative to control; conditions: SF-539, 48 h, read-out: GI
NCI-H23 = assay: Growth inhibition of human NCI-H23 cells at 10^-5 M incubated for 48 hrs by sulforhodamine B assay relative to control; conditions: NCI-H23, 48 h, read-out: GI
SF-295 = assay: Growth inhibition of human SF295 cells at 10^-5 M incubated for 48 hrs by sulforhodamine B assay relative to control; conditions: SF-295, 48 h, read-out: GI
HL-60(TB) = assay: Growth inhibition of human HL-60(TB) cells at 10^-5 M incubated for 48 hrs by sulforhodamine B assay relative to control; conditions: HL-60, 48 h, read-out: GI
OVCAR-4 = assay: Growth inhibition of human OVCAR4 cells at 10^-5 M incubated for 48 hrs by sulforhodamine B assay relative to control; conditions: OVCAR-4, 48 h, read-out: GI
SR = assay: Growth inhibition of human SR cells at 10^-5 M incubated for 48 hrs by sulforhodamine B assay relative to control; conditions: read-out: GI
K562 = assay: Growth inhibition of human K562 cells at 10^-5 M incubated for 48 hrs by sulforhodamine B assay relative to control; conditions: K562, 48 h, read-out: GI
U-251 = assay: Growth inhibition of human U251 cells at 10^-5 M incubated for 48 hrs by sulforhodamine B assay relative to control; conditions: U-251, 48 h, read-out: GI
ACHN = assay: Growth inhibition of human ACHN cells at 10^-5 M incubated for 48 hrs by sulforhodamine B assay relative to control; conditions: read-out: GI
OVCAR-3 = assay: Growth inhibition of human OVCAR3 cells at 10^-5 M incubated for 48 hrs by sulforhodamine B assay relative to control; conditions: OVCAR-3, 48 h, read-out: GI
HCT-15 = assay: Growth inhibition of human HCT15 cells at 10^-5 M incubated for 48 hrs by sulforhodamine B assay relative to control; conditions: HCT-15, 48 h, read-out: GI
COLO 205 = assay: Growth inhibition of human COLO205 cells at 10^-5 M incubated for 48 hrs by sulforhodamine B assay relative to control; conditions: COLO 205, 48 h, read-out: GI
MOLT-4 = assay: Growth inhibition of human MOLT4 cells at 10^-5 M incubated for 48 hrs by sulforhodamine B assay relative to control; conditions: MOLT-4, 48 h, read-out: GI
UACC-257 = assay: Growth inhibition of human UACC257 cells at 10^-5 M incubated for 48 hrs by sulforhodamine B assay relative to control; conditions: UACC-257, 48 h, read-out: GI
HT-29 = assay: Growth inhibition of human HT-29 cells at 10^-5 M incubated for 48 hrs by sulforhodamine B assay relative to control; conditions: HT-29, 48 h, read-out: GI
KM12 = assay: Growth inhibition of human KM12 cells at 10^-5 M incubated for 48 hrs by sulforhodamine B assay relative to control; conditions: KM12, 48 h, read-out: GI
SNB-75 = assay: Growth inhibition of human SNB75 cells at 10^-5 M incubated for 48 hrs by sulforhodamine B assay relative to control; conditions: SNB-75, 48 h, read-out: GI

With `COc1ccc2nc(Cl)c(Cn3nnc(Cc4ccccc4)n3)cc2c1` as the compound, how does the inhibition of growth at 10 µM (NCI-H226) read?
Its inhibition of growth at 10 µM is 61%.

And the inhibition of growth at 10 µM (RXF 393)?
The inhibition of growth at 10 µM was 39.8%.

And the inhibition of growth at 10 µM (UACC-62)?
Its inhibition of growth at 10 µM is 64.9%.

And the inhibition of growth at 10 µM (SF-268)?
The inhibition of growth at 10 µM was 48.5%.

And the inhibition of growth at 10 µM (Hs-578T)?
Its inhibition of growth at 10 µM is 31.1%.

And the MIC (Candida albicans)?
Its MIC is 10 µg/mL (≈ 27.3 µM).

And the inhibition of growth at 10 µM (SW-620)?
Its inhibition of growth at 10 µM is 33.6%.

What about the inhibition of growth at 10 µM (M14) of the same compound?
The inhibition of growth at 10 µM was 69.7%.

What about the inhibition of growth at 10 µM (MDA-MB-231) of the same compound?
Its inhibition of growth at 10 µM is 49.3%.

And the inhibition of growth at 10 µM (TK-10)?
Its inhibition of growth at 10 µM is 65.1%.

What about the inhibition of growth at 10 µM (LOX IMVI) of the same compound?
Its inhibition of growth at 10 µM is 57.1%.

And the inhibition of growth at 10 µM (BT-549)?
The inhibition of growth at 10 µM was 79.7%.

What about the inhibition of growth at 10 µM (A549) of the same compound?
The inhibition of growth at 10 µM was 68.5%.

And the inhibition of growth at 10 µM (UO-31)?
The inhibition of growth at 10 µM was 85.3%.

And the inhibition of growth at 10 µM (786-0)?
The inhibition of growth at 10 µM was 52.5%.

What about the inhibition of growth at 10 µM (OVCAR-8) of the same compound?
The inhibition of growth at 10 µM was 59.5%.

What about the zone of inhibition at 100 µg/mL (Aspergillus fumigatus [1]) of the same compound?
Its zone of inhibition at 100 µg/mL is 20 mm.

What about the inhibition of growth at 10 µM (EKVX) of the same compound?
Its inhibition of growth at 10 µM is 75.5%.

What about the inhibition of growth at 10 µM (OVCAR-5) of the same compound?
The inhibition of growth at 10 µM was 17.2%.

What about the inhibition of growth at 10 µM (T47D) of the same compound?
The inhibition of growth at 10 µM was 97.6%.

And the inhibition of growth at 10 µM (SN12C)?
Its inhibition of growth at 10 µM is 42.7%.

What about the inhibition of growth at 10 µM (HCC 2998) of the same compound?
Its inhibition of growth at 10 µM is 41%.

And the inhibition of growth at 10 µM (SK-MEL-5)?
The inhibition of growth at 10 µM was 147%.

And the MIC (Aspergillus fumigatus [2])?
The MIC was 25 µg/mL (≈ 68.3 µM).

And the inhibition of growth at 10 µM (SK-MEL-28)?
Its inhibition of growth at 10 µM is 52.5%.

And the inhibition of growth at 10 µM (SK-OV-3)?
The inhibition of growth at 10 µM was 50.6%.

And the inhibition of growth at 10 µM (SNB-19)?
The inhibition of growth at 10 µM was 42%.

What about the inhibition of growth at 10 µM (MCF7) of the same compound?
The inhibition of growth at 10 µM was 72.1%.

And the inhibition of growth at 10 µM (SF-539)?
The inhibition of growth at 10 µM was 32.5%.

What about the inhibition of growth at 10 µM (NCI-H23) of the same compound?
Its inhibition of growth at 10 µM is 67.5%.

What about the inhibition of growth at 10 µM (SF-295) of the same compound?
The inhibition of growth at 10 µM was 62.6%.

What about the inhibition of growth at 10 µM (HL-60(TB)) of the same compound?
Its inhibition of growth at 10 µM is 43.4%.

And the inhibition of growth at 10 µM (OVCAR-4)?
Its inhibition of growth at 10 µM is 80.3%.

And the inhibition of growth at 10 µM (SR)?
Its inhibition of growth at 10 µM is 77.1%.

What about the inhibition of growth at 10 µM (K562) of the same compound?
Its inhibition of growth at 10 µM is 67.1%.

And the inhibition of growth at 10 µM (U-251)?
Its inhibition of growth at 10 µM is 46.8%.

What about the inhibition of growth at 10 µM (ACHN) of the same compound?
Its inhibition of growth at 10 µM is 58.5%.

And the inhibition of growth at 10 µM (OVCAR-3)?
The inhibition of growth at 10 µM was 50.1%.

And the inhibition of growth at 10 µM (HCT-15)?
The inhibition of growth at 10 µM was 63.5%.

What about the inhibition of growth at 10 µM (COLO 205) of the same compound?
Its inhibition of growth at 10 µM is 75.1%.

What about the inhibition of growth at 10 µM (MOLT-4) of the same compound?
Its inhibition of growth at 10 µM is 89.7%.

What about the inhibition of growth at 10 µM (UACC-257) of the same compound?
The inhibition of growth at 10 µM was 73.5%.

And the inhibition of growth at 10 µM (HT-29)?
The inhibition of growth at 10 µM was 72.6%.

And the inhibition of growth at 10 µM (KM12)?
The inhibition of growth at 10 µM was 63.5%.

And the inhibition of growth at 10 µM (SNB-75)?
The inhibition of growth at 10 µM was 42.9%.
